Measurements: US20260364175A1, “COMPOSITIONS FOR DRUG ADMINISTRATION” (Aegis Therapeutics, LLC, priority 2018, published 2026)
Values joined by “and” are separate entries in the source; they are usually repeats but may differ in a detail not shown here. Equal entries are not always repeated. Structures can show the parent of a compound that is named as a salt.

Tests used:
[1] = test system: blood glucose; assay: Ocular administration of insulin plus absorption enhancer, blood glucose in anesthetized rats; format: in vivo, rat (male Sprague-Dawley); details: for effect on ocular insulin absorption (alkyl chain length comparison): alkylmaltosides with insulin eye drops; for effect on blood glucose / ocular insulin absorption: 0.5% enhancer with 0.2% insulin eye drops; for Blood Glucose Concentration: 0.5% surfactant, insulin eye drops
[2] = test system: blood glucose; assay: Ocular administration of glucagon plus surfactant, blood glucose in rats; format: in vivo, rat; details: for Blood Glucose Concentration: 0.5% surfactant, glucagon eye drops after insulin; for effect on ocular glucagon absorption / blood D-glucose: eye drops, 0.5% surfactant plus glucagon (30 μg)
[3] = test system: blood glucose; assay: Intranasal insulin with/without […] TDM, anesthesia-induced hyperglycemia model; format: in vivo, mouse
From the text: Intranasal administration of drugs or agents are possible in animal models e.g., mice and rats, although the nasal opening in is very small. […] Hyperglycemic animals were induced by an intraperitoneal (IP) injection containing xylazine-ketamine and blood glucose levels were monitored over a period of time.

[4] = cited from earlier work
[5] = Buccal fast-dispersing melatonin tablets in rabbits; details: for bioavailability: fast-disintegrating tablet, buccal
Procedure: Thereafter, the animals return to consciousness. At individual time point over a two hour period, 1 mL blood samples are collected from the central ear artery. […] All samples are stored at −70 °C until assaying for melatonin. Melatonin is measured using a commercial ELISA kit manufactured by GenWay Biotech Inc., San Diego, CA.

[6] = Octreotide pharmacokinetics after s.c. and oral delivery; details: for CL/F: po; for t1/2 1: first peak; for t1/2 2: second peak
Procedure: C prior to administration. […] Death is confirmed by cervical dislocation. […] Euthanasia is confirmed by cervical dislocation.
Pharmacokinetic analyses is carried out as follows.
Serum half-life (t1/2) is determined as follows.

[7] = insulin alone intranasal, minus TDM

Compound: CCCCCCCCO[C@@H]1O[C@H](CO)[C@@H](O[C@H]2O[C@H](CO)[C@@H](O)[C@H](O)[C@H]2O)[C@H](O)[C@H]1O [octyl maltoside, Octyl-β-D-maltoside]
- effect on ocular insulin absorption (alkyl chain length comparison) [1]: less absorption enhancing activity

Compound: CCCCCCCCCOC1O[C@H](CO)[C@@H](O)[C@H](O)[C@H]1O (stereo partly drawn) [nonylglucoside, nonylglucopyranoside]
- effect on blood glucose / ocular insulin absorption [1]: effectively stimulated insulin absorption
- Blood Glucose ([1]; insulin eye drops + 0.5%, reduced level, time not given): 150 mg/dL
- Blood Glucose ([1]; insulin eye drops + 0.5%, starting level): 297 mg/dL

Compound: regular porcine insulin
- effect on blood D-glucose ([1]; 0.2% in saline only, no enhancer, eye drops): remained elevated

Compound: CCCCCCCOC1O[C@H](CO)[C@@H](O)[C@H](O)[C@H]1O (stereo partly drawn) [heptylglucoside, heptylglucopyranoside]
- effect on blood glucose / ocular insulin absorption [1]: ineffective

Compound: dodecylsucrose [Dodecyl Sucrose]
- Blood Glucose Concentration ([1]; 40 min): 120 mg/dL
- Blood Glucose Concentration ([1]; 90 min): 86 mg/dL
- Blood Glucose ([1]; insulin eye drops + […], 120 min): 150 mg/dL
- Blood Glucose ([1]; insulin eye drops + […], time 0): 335 mg/dL
- Blood Glucose Concentration ([2]; 130 min): 111 mg/dL
- Blood Glucose Concentration ([2]; 140 min): 143 mg/dL
- Blood Glucose Concentration ([2]; 150 min): 202 mg/dL
- Blood Glucose Concentration ([2]; 160 min): 247 mg/dL
- Blood Glucose Concentration ([2]; 170 min): 242 mg/dL
- Blood Glucose Concentration ([2]; 180 min): 234 mg/dL
- Blood Glucose Concentration ([2]; 190 min): 211 mg/dL
- effect on ocular glucagon absorption / blood D-glucose [2]: increase significantly

Compound: insulin: insulin
- return of blood glucose to normoglycemic levels [3, 7]: never return to normoglycemic levels
- time after insulin administration at which blood glucose starts to decline [3, 7]: about 110 minutes
- time mark at which blood glucose starts to decline [3, 7]: ~120 min

Compound: CCCCCCCCCCCCCO[C@@H]1O[C@H](CO)[C@@H](O[C@H]2O[C@H](CO)[C@@H](O)[C@H](O)[C@H]2O)[C@H](O)[C@H]1O [Tridecyl Maltoside, tridecyl-β-D-maltoside]
- effect on blood glucose / ocular insulin absorption [1]: effective as absorption enhancers
- Blood Glucose Concentration ([1]; 40 min): 100 mg/dL
- Blood Glucose Concentration ([1]; 50 min): 87 mg/dL
- Blood Glucose Concentration ([1]; 80 min): 79 mg/dL
- Blood Glucose Concentration ([1]; 90 min): 85 mg/dL
- Blood Glucose Concentration ([1]; 100 min): 76 mg/dL
- Blood Glucose Concentration ([1]; 110 min): 74 mg/dL
- Blood Glucose Concentration ([1]; 120 min): 75 mg/dL
- effect on ocular insulin absorption ([1]; […] enhancer with insulin eye drops): sustained for the two hour time course of the experiment
- effect on ocular insulin absorption (alkyl chain length comparison) [1]: more effective
- Blood Glucose Concentration ([2]; 130 min): 82 mg/dL
- effect on ocular glucagon absorption / blood D-glucose [2]: increase significantly

Compound: COc1ccc2[nH]cc(CCNC(C)=O)c2c1 [melatonin, 5-methoxy-N-acetyltryptamine]
- mean elimination half-life ([4]; human, in vivo): roughly 45 minutes
- absolute bioavailability ([4]; oral tablets, normal healthy volunteers (DeMuro et al.)): approximately 15%
- oral bioavailability (estimated) ([4]; oral): 30-50%
- bioavailability ([5]; with 1% to 2% alkylsaccharide): at least 75%
- bioavailability ([5]; without alkylsaccharide): less than 50%
- time to maximal concentration vs tablets without alkylsaccharide ([5]; with alkylsaccharide): approximately one half the time

Compound: CCCCCCOC1O[C@H](CO)[C@@H](O)[C@H](O)[C@H]1O (stereo partly drawn) [hexylglucoside, Hexylglucopyranoside]
- effect on blood glucose / ocular insulin absorption [1]: ineffective

Compound: decylsucrose
- Blood Glucose ([1]; insulin eye drops + 0.5%, 120 min): 164 mg/dL
- Blood Glucose ([1]; insulin eye drops + 0.5%, time 0): 313 mg/dL

Compound: C[C@@H](O)[C@@H]1NC(=O)[C@H](CCCCN)NC(=O)[C@@H](Cc2c[nH]c3ccccc23)NC(=O)[C@H](Cc2ccccc2)NC(=O)[C@@H](NC(=O)[C@H](N)Cc2ccccc2)CSSC[C@@H](C(=O)N[C@H](CO)[C@@H](C)O)NC1=O (relative stereo) [Octreotide, L-Cysteinamide, D-phenylalanyl-L-cysteinyl-L-phenylalanyl-D-tryptophyl-L-lysyl-L-threonyl-N-[2-hydroxy-1-(hydroxymethyl)propyl]-, cyclic (2→7)-disulfide; [R—(R*, R*)]acetate salt]
- CL/F ([6]; mouse, in vivo, 1 mg/kg, oral 3.0% DDM): 54900 mL/min
- CL/F ([6]; mouse, in vivo, 1 mg/kg, oral […] DDM): 28400 mL/min
- half-life ([6]; mouse, in vivo, sc, 1 mg/kg): 41.2 min
- t1/2 1 ([6]; oral 0.5% DDM, 1 mg/kg): 1.56 min
- t1/2 2 ([6]; oral 0.5% DDM, 1 mg/kg): 52.50 min
- AUC1 ([6]; oral 0.5% DDM, 1 mg/kg): 353.03 ng/mL/min
- AUC2 ([6]; oral 0.5% DDM, 1 mg/kg): 901.04 ng/mL/min
- t1/2 ([6]; oral 0.5% DDM, 1 mg/kg): 52.1 min
- t1/2 ([6]; oral 0.5% DDM, 1 mg/kg, listed as octreotide): 53.1 min and 52.1 min
- Cmax1 higher than Cmax2 ([6]; oral 0.5% Intravail): more than 2 fold
- t1/2 1 ([6]; oral 3.0% DDM, 1 mg/kg): 1.33 min
- t1/2 2 ([6]; oral 3.0% DDM, 1 mg/kg): 22.28 min
- AUC1 ([6]; oral 3.0% DDM, 1 mg/kg): 21.50 ng/mL/min
- AUC2 ([6]; oral 3.0% DDM, 1 mg/kg): 119.74 ng/mL/min
- t1/2 ([6]; oral 3.0% DDM, 1 mg/kg): 23.6 min
- t1/2 1 ([6]; oral […] DDM, 1 mg/kg): 0.96 min
- AUC1 ([6]; oral […] DDM, 1 mg/kg): 97.80 ng/mL/min
- AUC2 ([6]; oral […] DDM, 1 mg/kg): 132.90 ng/mL/min
- t1/2 ([6]; oral […] DDM, 1 mg/kg): 25.8 min
- t1/2 1 ([6]; s.c., 1 mg/kg): 2.04 min
- t1/2 2 ([6]; s.c., 1 mg/kg): 39.15 min
- AUC1 ([6]; s.c., 1 mg/kg): 38.39 ng/mL/min
- AUC2 ([6]; s.c., 1 mg/kg): 251.73 ng/mL/min

Compound: insulin (Humalog)
- lowest blood glucose level ([3]; insulin + […] TDM intranasal, about 60 minute time point (about 30 min after insulin)): about 80 mg/dl
- blood glucose level ([3]; insulin + […] TDM intranasal, from about 75 minute time point): 80 to 100 mg/dL

Compound: CCCCCCCCCCO[C@@H]1O[C@H](CO)[C@@H](O[C@H]2O[C@H](CO)[C@@H](O)[C@H](O)[C@H]2O)[C@H](O)[C@H]1O [Decyl Maltoside, decyl-β-D-maltoside]
- effect on blood glucose / ocular insulin absorption [1]: maintained in the normoglycemic (80-120 mg/dl) or near-normoglycemic (120-160 mg/dl) range
- Blood Glucose Concentration ([1]; 80 min): 110 mg/dL
- Blood Glucose Concentration ([1]; 90 min): 120 mg/dL
- Blood Glucose Concentration ([1]; 100 min): 92 mg/dL
- Blood Glucose Concentration ([1]; 110 min): 81 mg/dL
- Blood Glucose Concentration ([1]; 120 min): 87 mg/dL
- effect on ocular insulin absorption (alkyl chain length comparison) [1]: less absorption enhancing activity
- Blood Glucose Concentration ([2]; 130 min): 95 mg/dL
- Blood Glucose Concentration ([2]; 140 min): 99 mg/dL
- Blood Glucose Concentration ([2]; 180 min): 180 mg/dL
- effect on ocular glucagon absorption / blood D-glucose [2]: increase significantly
